Here are results for 13 molecules from patent US20230346940A1, “Method And System For Identifying And Validating Shared Candidate Antigens And Shared Antigen-Specific T Lymphocyte Pairs” (National University of Singapore, priority 2019, published 2023).

For one assay, the system named is CTLs. Kind of assay: ELISPOT assay for IFN-γ in PBMCs from healthy donors. To be noted: PBMCs from healthy donors with or without stimulation with peptide. It counts as cell-based, human. How it is done:
T cells having a shared splice variant antigen, such as MARK3, can be expanded ex-vivo. In the case of MARK3, PBMC were obtained from healthy donors. An aliquot of these PBMCs was used to isolate monocytes (Human Monocyte Isolation Kit, STEMCELL Technologies) for subsequent differentiation to dendritic cells (ImmunoCult Dendritic Cell Culture kit, STEMCELL Technologies). These monocyte derived dendritic cells were treated with mitomycin C (30 μg/ml) to prevent outgrowth of these cells. These dendritic cells were then loaded with MARK3 peptide and used as antigen-presenting cells. CD8+ T cells were isolated (EasySep Human CD8+ T cell isolation kit, STEMCELL Technologies) from another aliquot of PBMCs and these cells were co-cultured with the antigen-presenting cells to stimulate the expansion of MARK3 specific T cells. To generate sufficient number of MARK3-specific T cells for functional characterisation or TCR identification, MARK3 peptide loaded monocyte derived dendritic cells or artificial antigen presenting cells may be used to further stimulate expansion of MARK3 specific T cells. Expansion of MARK3 specific T cells using the above method can be used for the treatment of patients.
Characterization of the MARK3 antigen and CD8+T lymphocytes was carried out by first determining whether MARK3 specific CTLs could be expanded in healthy donor PBMCs (as shown in Example 6). […]

Assay [1] concerns CD8+ T cells. Kind of assay: HLA-A11 tetramer CyTOF screen of gastric cancer patient PBMCs. The settings on record: for CD8+ T-cells capable of recognizing the peptide antigen (HLA-A11 tetramer staining): PBMCs of 7 gastric cancer patients, validation cohort, CyTOF. It counts as cell-based, human. The source says: In one specific example, as shown schematically in FIG. 7, the method 150 may include HLA tetramer staining of peripheral blood, including preparing HLA tetramers by bacterially expressing and purifying biotin tagged HLA loaded with a UV cleavable peptide. Individual shared candidate antigens are then loaded onto the HLA molecule by UV mediated peptide exchange. Addition of heavy metal barcoded streptavidin causes formation of a tetramer comprising a shared candidate antigen. Peripheral blood (e.g. PBMC) from one or more cohort of patients having the medical condition is stained with a pool of the HLA tetramer and analysis is then done using CyTOF.
(§1) To determine if GC patients have CD8+ T cells that target any of the 77 peptides that were identified in Example 2, a CyTOF screen was conducted on a new cohort of GC patients (the Validation cohort) using MHC tetramer staining of peripheral blood. The CyTOF screen was performed as described in Leong and Newell (2015). Chemically synthesized peptides were supplied by Mimotopes and were stored as dry powder at −20° C. These peptides were loaded onto biotinylated HLA-A11 by UV-mediated exchange. Streptavidin labelled with three heavy metal barcodes was bound to the peptide loaded HLA-A11 to make the HLA-tetramers used for staining peripheral blood (FIG. 7). HLA-A11 tetramer staining of 7 gastric cancer patients derived PBMCs was performed (FIG. 12(a)) and control peptides against the Epstein-Bar Virus (EBV) viral antigen were incorporated as positive control (FIG. 13). […] This antigen was generated from an alternative splicing event of the MARK3 gene identified in Example 2 (FIG. 11(b)). The sequence of the MARK3 splice variant antigen used in the CyTOF studies was RNMSFRIK (SEQ ID NO: 1) and the EBV peptide sequence was […] (SEQ ID NO: 2). […] Patient SC020 was also positive for T Cells that reacted with the positive control peptide from the EBV (FIG. 13). The presence of the MARK3 splice variant antigen in a fresh PBMC isolate from gastric cancer patient, SC020, was further confirmed by a FACS analysis using fluorescently labelled MARK3-A11-RNMSFRIK peptide tetramers (FIG. 12(b)).

A further assay relates to CD8 T cells. Description: FACS analysis with fluorescently labelled A11 MHC tetramers. It counts as cell-based, human. To be noted: fresh PBMC isolate from gastric cancer patient SC020. How it is done:
as §1, with “The presence of the MARK3 splice variant antigen in a fresh PBMC isolate from gastric cancer patient, SC020, was further confirmed by a FACS analysis using fluorescently labelled MARK3-A11-RNMSFRIK peptide tetramers (FIG. 12(b)).” left out

For assay [2], the system named is CD8+ T cells. Kind of assay: HLA-A11 tetramer CyTOF screen of CRC patient PBMC. It counts as cell-based, human. To be noted: 8 HLA-A11 positive CRC patients; for antigen specific CD8+ T cells detected in CRC patients: validation cohort. How it is done: To determine if CRC patients have CD8+ T cells that target any of the 102 peptides that were identified in Example 12, a CyTOF screen was conducted on a new cohort of 8 CRC patients (validation cohort) using MHC tetramer staining of PBMC (FIG. 19(a)). These CRC patients are all positive for HLA-A11.
The 102 peptides were chemically synthesized by Mimotopes. These peptides were loaded onto biotinylated HLA-A11 by UV-mediated exchange. Streptavidin, labelled with three heavy metal barcodes, was bound to the peptide-loaded HLA-A11 to make the HLA-tetramers used for staining PBMCs.
To increase the sensitivity of detecting antigen-specific T cells, two different sets of heavy metal barcodes were used for each peptide. PBMCs from each patient were stained with these two sets of peptide-loaded HLA tetramers. Frequency co-concordance was used as an indication of specific staining for rare events.

In assay [3] the test system is CD8+ T cells. Kind of assay: moDC/CD8+ T-cell co-culture of healthy donors, tetramer FACS (immunogenicity). It counts as cell-based, human. To be noted: HLA-A11 positive healthy donors, SVP 2.5 μM loaded moDC, 10 days co-culture, PE/APC tetramers. The text has this:
Antigen specific T-cells for LRR1, GRINA, and ZNF670 were initially identified in the SVP/HLA-A11 tetramer CyTOF screen (as described in Example 13). The immunogenicity of these targets was further assessed by testing whether antigen specific T-cells could be expanded in the PBMC of healthy donors who were HLA-A11 positive. PBMC were obtained from healthy donors and an aliquot was used to isolate monocytes (CD14 positive selection kit, STEMCELL Technologies) for subsequent differentiation to dendritic cells. Briefly, differentiation of monocytes to dendritic cells was carried out by culturing the isolated CD14 cells with IL4 (10 ng/ml) and GM-CSF (800 IU/ml) for 3 days and maturating the dendritic cells with IL4 (10 ng/ml), GM-CSF (800 IU/ml), LPS (10 ng/ml), IFN-γ (100 IU/ml), and the LRR1, GRINA and ZNF670 HLA-A11 SVP (2.5 μM) overnight. These monocyte derived dendritic cells were then cultured with CD8+ T cells which were isolated from another aliquot of PBMCs from the same donor using EasySep CD8 T cell isolation kit, STEMCELL Technologies. After 10 days of co-culture, expansion of antigen-specific T cells was detected by staining with tetramers (labelled with PE and APC) that have been loaded with the LRR1, GRINA and ZNF670 HLA-A11 SVP. […] Antigen-specific T-cells for these SVPs are not observed in CD8+ T cells in unstimulated PBMCs from healthy donors, whereas SVP-specific T-cells can be observed when they have been co-cultured with monocyte-derived dendritic cells that have been loaded with the SVP. In summary, antigen-specific CD8 T cells for LRR1, GRINA and ZNF670 were able to be generated in healthy donors, showing that these SVPs are immunogenic.

Assay [4] relates to CD8+ T cells. Description: HLA-A24 tetramer CyTOF screen of CRC patient PBMC. It counts as cell-based, human. The settings on record: 10 HLA-A24 positive CRC patients, validation cohort. How it is done:
To determine whether CRC patients have CD8+ T cells that target any of the 75 SVPs that bind to HLA-A24, a CyTOF screen was conducted on a new cohort of 10 HLA-A24 positive CRC patients (validation cohort) using MHC tetramer staining of PBMC (procedure for performing this screen is similar to that described in Example 13). In total, antigen-specific CD8+ T cells that target eight splice variant peptides were identified from this screen.

The target in assay [5] is T1, MARK3 splice variant (inclusion of exon 24; MARK3 isoforms 1 and 3) peptide on HLA-A*11 (human).
T1 peptide: RNMSFRFIK
Kind of assay: multimer staining.

[6] abbreviates: listed as MARK3 splice variant antigen.

Entries after “also recorded” stand apart in the source; their conditions may differ.

Turning to “RNMSFRFIK (MARK3 splice variant) [MARK3 peptide]”, the “IFN-γ secreting CTLs” value in the assay with CTLs is “IFN-γ secreting CTLs are only observed when PBMCs were stimulated with MARK3 peptide”; with CTLs (setting [6]) it was “antigenic”. Also, in the assay on CD8+ T cells [1] (CyTOF screen, 7 GC patients), the “positive hit out of 7 samples” value is reported as 14%. Also, the “CD8+ T-cells capable of recognizing the peptide antigen (HLA-A11 tetramer staining)” value in the assay on CD8+ T cells [1] is “one out of 7”; in the assay with CD8+ T cells [1] (setting [6]), “one of the patients, SC020, was found to be positive”; with CD8+ T cells [1] (listed as MARK3 splice variant peptide), “has CTLs that react”. Besides, the “presence of antigen-specific CD8 T cells confirmed by FACS” value in the assay with CD8 T cells is “confirmed”.

On to “VTSPSRRSK (CAMKK1 splice variant antigen)”, for which the “antigen specific CD8+ T cells detected in CRC patients” value with CD8+ T cells [2] is “could be identified in one or more CRC patients”.

For “SSCSSCPLSK (EBV peptide sequence) [control peptide against the Epstein-Bar Virus (EBV) viral antigen, positive control, reference compound]”, the “CD8+ T-cells capable of recognizing the peptide antigen (HLA-A11 tetramer staining)” value in the assay with CD8+ T cells [1] is on record as “positive”.

As to VIVSASRTK (YAF2 splice variant antigen), the “antigen specific CD8+ T cells detected in CRC patients” value in the assay on CD8+ T cells [2] is “could be identified in one or more CRC patients”.

For “SSFYALEEK (NBPF9 splice variant antigen)”, in the assay with CD8+ T cells [2], the “number of CRC patients in which detected” value is “two” and the “antigen specific CD8+ T cells detected in CRC patients” value is recorded as “could be identified in one or more CRC patients”.

Turning to “SQLDFVKTRK (PARD3 splice variant antigen)”, the “antigen specific CD8+ T cells detected in CRC patients” value in the assay on CD8+ T cells [2] is “could be identified in one or more CRC patients”.

Take “SIRQAFIRK (GRINA splice variant antigen)”: the “antigen specific CD8+ T cells detected in CRC patients” value with CD8+ T cells [2] is listed as “could be identified in one or more CRC patients”. Also, the “expansion of antigen-specific CD8+ T cells (immunogenicity)” value (shortened to “expansion”) in the assay with CD8+ T cells [3] was “observed only after stimulation; also recorded: immunogenic”.

On to “SYHSIPSLPRF (LRR1 splice variant antigen)”, for which the results for the “antigen specific CD8+ T cells detected in CRC patients” value in the assay with CD8+ T cells [4] and in the assay on CD8+ T cells [4] (listed as SEQ ID NO: 51) were “detected in CRC patients” and “detected”, respectively.

As to SLPRFGYRK (LRR1 splice variant antigen), the entries for the “antigen specific CD8+ T cells detected in CRC patients” value in the assay with CD8+ T cells [2], with CD8+ T cells [2] (listed as SEQ ID NO: 36) and with CD8+ T cells [2] (listed as SLPRFGYRK) were “could be identified in one or more CRC patients”, “detected” and “detected in CRC patients”, respectively. For the same molecule, in the assay with CD8+ T cells [3], the “expansion” value is given as “observed only after stimulation; also recorded: immunogenic”.

Consider “LTMAVKAEK (ZC3HAV splice variant antigen) [ZC3HAV1]”, for which the “antigen specific CD8+ T cells detected in CRC patients” value with CD8+ T cells [2] is on record as “could be identified in one or more CRC patients”.

On to “SCVSPSSELK (ZNF670 splice variant antigen)”, for which, in the assay on CD8+ T cells [2], the “number of CRC patients in which detected” value was “two” and the “antigen specific CD8+ T cells detected in CRC patients” value is on record as “could be identified in one or more CRC patients”. In addition, the “expansion” value in the assay on CD8+ T cells [3] is recorded as “observed only after stimulation; also recorded: immunogenic”.

As to “KWPPATETL (MZF1 spliced variant antigen)”, the “antigen specific CD8+ T cells detected in CRC patients” value in the assay with CD8+ T cells [4] is given as “detected”.

B1: MARK3-specific TCR (MARK3 TRA chain and MARK3 TRB chain) (TCR, V domains shown)
Valpha: SQKIEQNSEALNIQEGKTATLTCNYTNYSPAYLQWYRQDPGRGPVFLLLIRENEKEKRKERLKVTFDTTLKQSLFHITASQPADSATYLCAPYTGGFKTIFGAGTRLFVKA
Vbeta: DTGVSQNPRHKITKRGQNVTFRCDPISEHNRLYWYRQTLGQGPEFLTYFQNEAQLEKSRLLSDRFSAERPKGSFSTLEIQRTEQGDSAMYLCASSSPRVGYGYTFGSGTRLTVV
For B1, the binding result in assay [5] was “recognises”.
